This is an account of results in PubChem BioAssay (NCI).

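Protocol summary: plate cells (96-well), add compound at 5 concentrations, incubate 48 h, interpolate endpoints linearly. TGI denotes the concentration required for complete inhibition of growth.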

Among the test systems are SW-620 colon; NCI-H226 lung; K-562 leukemia; SNB-75 CNS; RPMI-8226 leukemia; SK-MEL-28 melanoma; SF-268 CNS; HL-60(TB) leukemia; SR leukemia; ACHN renal.
Assay in all cases: NCI anticancer screen, dose series, 48 h

On to `COC/C=C\[C@@]1(O)CCCC[C@@H]1CC(OC)OC`, for which the TGI in the experiment on SW-620 colon was more than 100 µM; in the experiment on NCI-H226 lung, more than 100 µM; in the experiment on K-562 leukemia, more than 100 µM; with SNB-75 CNS, more than 100 µM; in the experiment with RPMI-8226 leukemia, 70.9 µM; in the experiment on SK-MEL-28 melanoma it was more than 80.6 µM. For the same compound, the results for the TGI in the experiment on SF-268 CNS, in the experiment on HL-60(TB) leukemia and with SR leukemia were more than 91.9 µM, more than 28.4 µM and 98.9 µM, respectively.
Turning to `CCN(CC)CCNc1ccc(C)c2sc3ccc(O)cc3c(=O)c12`, the TGI in the experiment with SW-620 colon is 2.38 µM; in the experiment on NCI-H226 lung, 2 µM; in the experiment with K-562 leukemia, 3.62 µM; with SNB-75 CNS, 4.3 µM; in the experiment on RPMI-8226 leukemia it was 4.95 µM; in the experiment on SK-MEL-28 melanoma, 2.96 µM. The TGI in the experiment on SF-268 CNS worked out at 7.93 µM; in the experiment on ACHN renal, 1.63 µM; in the experiment with HL-60(TB) leukemia, 0.979 µM; in the experiment on SR leukemia, 0.981 µM.
Consider `Nc1c(C(=O)c2ccccc2)[nH]c(NCc2ccccc2)c1C(=S)Nc1ccccc1`, for which the TGI in the experiment with SW-620 colon, with NCI-H226 lung, in the experiment on K-562 leukemia, with SNB-75 CNS, in the experiment on SK-MEL-28 melanoma and with SF-268 CNS was more than 100 µM throughout. Also, the TGI in the experiment on ACHN renal, with HL-60(TB) leukemia and in the experiment on SR leukemia was more than 100 µM in each case.
For the compound `CC1OC(=O)c2ccccc2NC1=O` (centres undefined), the TGI in the experiment with SW-620 colon, with NCI-H226 lung, in the experiment on K-562 leukemia, in the experiment on SNB-75 CNS, in the experiment on RPMI-8226 leukemia and in the experiment with SK-MEL-28 melanoma was more than 100 µM in each case. Moreover, the TGI with SF-268 CNS, with ACHN renal, in the experiment with HL-60(TB) leukemia and with SR leukemia was more than 100 µM each time.
With `O/N=C\c1cc(O)c(O)c(/C=N/O)c1`, the TGI with SW-620 colon was more than 100 µM; in the experiment with NCI-H226 lung it was 78.6 µM; with K-562 leukemia, more than 100 µM; in the experiment on SNB-75 CNS, more than 100 µM; in the experiment with RPMI-8226 leukemia it was more than 100 µM; in the experiment on SK-MEL-28 melanoma it was more than 100 µM. Besides, the TGI in the experiment with SF-268 CNS is more than 100 µM; in the experiment with ACHN renal, 80.3 µM; with HL-60(TB) leukemia, more than 100 µM; in the experiment with SR leukemia it was more than 100 µM.
For `O=C1c2ccccc2C(=O)N1c1ccc(OCCN2CCCCC2)cc1`, the TGI in the experiment with SW-620 colon, in the experiment with NCI-H226 lung, in the experiment with K-562 leukemia, in the experiment on RPMI-8226 leukemia, with SK-MEL-28 melanoma and with SF-268 CNS was more than 100 µM each time. Moreover, the TGI in the experiment on ACHN renal, in the experiment on HL-60(TB) leukemia and with SR leukemia was more than 100 µM each time.
For `O=C(NC(Nc1ccc(F)c(Cl)c1)(C(F)(F)F)C(F)(F)F)C(C(F)(F)F)C(F)(F)F`, the TGI with SW-620 colon was more than 100 µM; with NCI-H226 lung it was 64.7 µM; with K-562 leukemia it was 77.1 µM; with RPMI-8226 leukemia, 66.8 µM; in the experiment on SK-MEL-28 melanoma it was more than 100 µM; in the experiment with SF-268 CNS, more than 100 µM. Also, the TGI in the experiment on ACHN renal was 36.9 µM; in the experiment with HL-60(TB) leukemia it was 44.6 µM; with SR leukemia it was more than 100 µM.
As to `C#CCOC(=O)c1ccccc1OC(C)=O`, the TGI in the experiment on SW-620 colon, with NCI-H226 lung, in the experiment on K-562 leukemia, in the experiment with SNB-75 CNS, in the experiment on RPMI-8226 leukemia and with SF-268 CNS was more than 100 µM each time. In addition, the TGI in the experiment with ACHN renal, in the experiment with HL-60(TB) leukemia and with SR leukemia was more than 100 µM throughout.
Turning to `C/C(=N\Nc1ccc([N+](=O)[O-])cc1)C(=O)N(C)Nc1ccccc1`, the TGI in the experiment with SW-620 colon, in the experiment with NCI-H226 lung, with K-562 leukemia, in the experiment on SNB-75 CNS, in the experiment with RPMI-8226 leukemia and in the experiment with ACHN renal was more than 100 µM each time. Moreover, the TGI with HL-60(TB) leukemia and in the experiment on SR leukemia was more than 100 µM in each case.
Turning to `CSCCCCCCCCCCOc1ccc(C=C2C(=C(C#N)C#N)c3ccccc3C2=C(C#N)C#N)cc1`, the TGI in the experiment with SW-620 colon is 37.8 µM; in the experiment with NCI-H226 lung, 79.9 µM; with K-562 leukemia, more than 100 µM; in the experiment with RPMI-8226 leukemia, more than 100 µM; in the experiment with SK-MEL-28 melanoma it was 29.6 µM; in the experiment with SF-268 CNS it was 34.2 µM. Further, the TGI in the experiment on ACHN renal was determined as 29.5 µM; in the experiment with HL-60(TB) leukemia, 4.34 µM; with SR leukemia, 52.6 µM.
Consider `CCOC(=O)c1nc2cc(C(F)(F)F)ccc2nc1Nc1ccc(Cl)c(Cl)c1`, for which the TGI in the experiment with SW-620 colon, with NCI-H226 lung, with SNB-75 CNS, in the experiment on RPMI-8226 leukemia, in the experiment with SK-MEL-28 melanoma and in the experiment with SF-268 CNS was more than 100 µM throughout. Moreover, the TGI with ACHN renal, in the experiment with HL-60(TB) leukemia and with SR leukemia was more than 100 µM each time.
As for `CC(=O)OC[C@@]12C[C@H]3C(=O)C(C)(C)C[C@H]3[C@]1(C)[C@@H](OC(C)=O)[C@]1(O)[C@H]([C@@H](OC(=O)c3ccccc3)[C@@H](C)[C@H]1OC(C)=O)[C@H]2OC(C)=O`, the TGI in the experiment with SW-620 colon, with NCI-H226 lung, in the experiment on K-562 leukemia, in the experiment on SNB-75 CNS, in the experiment with SF-268 CNS and in the experiment with ACHN renal was more than 20 µM each time. For the same compound, the TGI in the experiment on HL-60(TB) leukemia and in the experiment with SR leukemia was more than 20 µM each time.
Take `CC(C)[Si]1(C(C)C)OCC2OC(n3ccc(=O)[nH]c3=O)C(O)(CO)C2O[Si](C(C)C)(C(C)C)O1` (centres undefined): the TGI with SW-620 colon stood at 33.8 µM; in the experiment with NCI-H226 lung, 36.8 µM; with K-562 leukemia, 81.6 µM; in the experiment with RPMI-8226 leukemia, 26.2 µM; in the experiment with SK-MEL-28 melanoma, 36.7 µM; with SF-268 CNS it was 27.8 µM. For the same compound, the TGI is 30.8 µM with ACHN renal, more than 100 µM in the experiment on HL-60(TB) leukemia and 30 µM in the experiment with SR leukemia.
On to `CNC(=O)CN1CC(=O)N(C)C(=O)C1`, for which the TGI in the experiment on SW-620 colon, in the experiment with NCI-H226 lung, in the experiment with K-562 leukemia, in the experiment on SNB-75 CNS, with RPMI-8226 leukemia and in the experiment with SK-MEL-28 melanoma was more than 100 µM throughout. The TGI with HL-60(TB) leukemia and with SR leukemia was more than 100 µM in each case.
For the compound `CCCCCCCCCN1CCC(=O)C(C(=O)OC)C1` (centres undefined), the TGI in the experiment with SW-620 colon worked out at 27.9 µM; in the experiment with NCI-H226 lung it was 27.5 µM; in the experiment with SNB-75 CNS it was 34 µM; in the experiment with RPMI-8226 leukemia, 49.1 µM; with SF-268 CNS, 30.2 µM; with ACHN renal, 21 µM. The results for the TGI in the experiment with HL-60(TB) leukemia and in the experiment on SR leukemia were 10.9 µM and 18.1 µM, respectively.
